Measurements reported in US12157730B2, “Heteroaryl derivative, method for producing same, and pharmaceutical composition comprising same as effective component” (VORONOI INC., priority 2019, dated 2024).

Target: T1, Ba/F3 cell EGFR Exon20 ins NPH (Homo sapiens, UniProt P00533, INS773NPH)
T1 construct: expressed in transfected cells; host or cells: Ba/F3
Test: Ba/F3 cell proliferation suppression, EGFR Exon20 ins NPH
Type: cell-based
Conditions: GI50 class; Ba/F3 cell line with NPH inserted at Exon20 of EGFR; 72 hours
In short: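 Seed 3000–5000 cells/well; after 24 h add compound (12 conc., 0.3 nM–50 um final); incubate 72 h; add CellTiter-Glo, 10 min room temperature; read luminescence; GI50 from % growth vs control, triplicate.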

C=CC(=O)Nc1cc(Nc2cc(N3OCC[C@@H]3c3ccc(F)c(F)c3F)ncn2)c(OC)cc1N1CC[C@@H](N2CCOCC2)C1 [compound 623, N-(4-methoxy-2-((R)-3-morpholinopyrolidine-1-yl)-5-((6-((R)-3-(2,3,4-trifluorophenyl)isoxazolidine-2-yl)pyrimidine-4-yl)amino)phenyl)acrylamide]
Ba/F3 (NPH) Activity: C (500 nM ≤ GI50 < 5000 nM)

C=CC(=O)Nc1cc(Nc2cc(N3OCC[C@@H]3c3ccc(F)cc3F)ncn2)c(OC)cc1N1CC[C@@H](N(C)C)C1 [compound 376, N-(5-((6-((R)-3-(2,4-difluorophenyl)isoxazolidine-2-yl)pyrimidine-4-yl)amino)-2-((R)-3-(dimethylamino)pyrolidine-1-yl)-4-methoxyphenyl) acrylamide]
Ba/F3 (NPH) Activity: A (GI50 < 50 nM)

C=CC(=O)Nc1cc(Nc2cc(N3OCC[C@@H]3c3ccc(F)c(Cl)c3)ncn2)c(OC)cc1N1CC[C@@H](N(C)C)C1 [compound 756, N-(5-((6-((R)-3-(3-chloro-4-fluorophenyl)isoxazolidine-2-yl)pyrimidine-4-yl)amino)-2-((R)-3-(dimethylamino)pyrolidine-1-yl)-4-methoxyphenyl) acrylamide]
Ba/F3 (NPH) Activity: A (GI50 < 50 nM)

C=CC(=O)Nc1cc(Nc2cc(N3OCC[C@H]3c3c(F)cccc3F)ncn2)c(OC)cc1N1CCC(N2CCN(C)[C@@H](C)C2)CC1 [compound 313, N-(5-((6-((S)-3-(2,6-difluorophenyl)isoxazolidine-2-yl)pyrimidine-4-yl)amino)-2-(4-((S)-3,4-dimethylpiperazine-1-yl)piperidine-1-yl)-4-methoxyphenyl) acrylamide]
Ba/F3 (NPH) Activity: C (500 nM ≤ GI50 < 5000 nM)

C=CC(=O)Nc1cc(Nc2cc(N3OCC[C@@H]3c3cccc(F)c3)ncn2)c(OC)cc1N1CCC(N2CCN(C(C)=O)CC2)CC1 [compound 741, N-(2-(4-(4-acetylpiperazine-1-yl)piperidine-1-yl)-5-((6-((R)-3-(3-fluorophenyl)isoxazolidine-2-yl)pyrimidine-4-yl)amino)-4-methoxyphenyl) acrylamide]
Ba/F3 (NPH) Activity: A (GI50 < 50 nM)

C=CC(=O)Nc1cc(Nc2cc(N3OCC[C@@H]3c3cccc(F)c3)ncn2)c(OC)cc1N1CCC(N2CCN(CC)CC2)CC1 [Example 248, N-(2-(4-(4-ethylpiperazine-1-yl)piperidine-1-yl)-5-((6-((R)-3-(3-fluorophenyl)isoxazolidine-2-yl)pyrimidine-4-yl)amino)-4-methoxyphenyl) acrylamide]
Ba/F3 (NPH) Activity: A (GI50 < 50 nM)

C=CC(=O)Nc1cc(Nc2cc(N3OCC[C@@H]3c3cccc4ccccc34)ncn2)c(OC)cc1N1CCN(C)CC1 [compound 441, N-(4-methoxy-2-(4-methylpiperazine-1-yl)-5-((6-((R)-3-(naphthalene-1-yl)isoxazolidine-2-yl)pyrimidine-4-yl)amino)phenyl) acrylamide]
Ba/F3 (NPH) Activity: B (50 nM ≤ GI50 < 500 nM)

C=CC(=O)Nc1cc(Nc2cc(N3OCC[C@@H]3c3cccc(OC)c3)ncn2)c(OC)cc1N1CCC(N2CCN(C)CC2)CC1 [Example 40, N-(4-methoxy-5-((6-((R)-3-(3-methoxyphenyl)isoxazolidine-2-yl)pyrimidine-4-yl)amino)-2-(4-(4-methylpiperazine-1-yl)piperidine-1-yl)phenyl) acrylamide]
Ba/F3 (NPH) Activity: B (50 nM ≤ GI50 < 500 nM)

C=CC(=O)Nc1cc(Nc2cc(N3OCC[C@@H]3c3cc(F)cc(F)c3)ncn2)c(OC)cc1N1CCC(N2C[C@@H](C)N(CC)[C@@H](C)C2)CC1 [compound 827, N-(5-((6-((R)-3-(3,5-difluorophenyl)isoxazolidine-2-yl)pyrimidine-4-yl)amino)-2-(4-((3S,5R)-4-ethyl-3,5-dimethylpiperazine-1-yl)piperidine-1-yl)-4-methoxyphenyl) acrylamide]
Ba/F3 (NPH) Activity: A (GI50 < 50 nM)

C=CC(=O)Nc1cc(Nc2cc(N3OCC[C@@H]3c3cc(F)ccc3F)ncn2)c(OC)cc1N1CCC(N2CCN(CC3CC3)CC2)CC1 [Example 93, N-(2-(4-(4-(cyclopropylmethyl)piperazine-1-yl)piperidine-1-yl)-5-((6-((R)-3-(2,5-difluorophenyl)isoxazolidine-2-yl)pyrimidine-4-yl)amino)-4-methoxyphenyl) acrylamide]
Ba/F3 (NPH) Activity: A (GI50 < 50 nM)

C=CC(=O)Nc1cc(Nc2cc(N3OCC[C@@H]3c3ccc(F)c(Cl)c3)ncn2)c(OC)cc1N1CCN(C)CC1 [compound 702, N-(5-((6-((R)-3-(3-chloro-4-fluorophenyl)isoxazolidine-2-yl)pyrimidine-4-yl)amino)-4-methoxy-2-(4-methylpiperazine-1-yl)phenyl)acrylamide]
Ba/F3 (NPH) Activity: A (GI50 < 50 nM)

C=CC(=O)Nc1cc(Nc2cc(N3OCC[C@@H]3c3ccc(F)c(Cl)c3)ncn2)c(OC)cc1N1CCN(C(C)=O)CC1 [compound 907, N-(2-(4-acetylpiperazine-1-yl)-5-((6-((R)-3-(3-chloro-4-fluorophenyl)isoxazolidine-2-yl)pyrimidine-4-yl)amino)-4-methoxyphenyl) acrylamide]
Ba/F3 (NPH) Activity: A (GI50 < 50 nM)

C=CC(=O)Nc1cc(Nc2cc(N3OCC[C@@H]3c3cccc(C)c3F)ncn2)c(OC)cc1N1CCC(N2CCN(C3CCC3)CC2)CC1 [Example 78, N-(2-(4-(4-cyclobutylpiperazine-1-yl)piperidine-1-yl)-5-((6-((R)-3-(2-fluoro-3-methylphenyl)isoxazolidine-2-yl)pyrimidine-4-yl)amino)-4-methoxyphenyl) acrylamide]
Ba/F3 (NPH) Activity: A (GI50 < 50 nM)

C=CC(=O)Nc1cc(Nc2cc(N3OCC[C@@H]3c3cccs3)ncn2)c(OC)cc1N1CCN(C)CC1 [compound 929, N-(4-methoxy-2-(4-methylpiperazine-1-yl)-5-((6-((R)-3-(thiophene-2-yl)isoxazolidine-2-yl)pyrimidine-4-yl)amino)phenyl)acrylamide]
Ba/F3 (NPH) Activity: A (GI50 < 50 nM)

C=CC(=O)Nc1cc(Nc2cc(N3OCC[C@@H]3c3c(F)ccc(F)c3F)ncn2)c(OC)cc1N1CCC(N2C[C@H]3C[C@@H]2CO3)CC1 [compound 641, N-(2-(4-((1R,4R)-2-oxa-5-azabicyclo[2.2.1]heptane-5-yl)piperidine-1-yl)-4-methoxy-5-((6-((R)-3-(2,3,6-trifluorophenyl)isoxazolidine-2-yl)pyrimidine-4-yl)amino)phenyl)acrylamide]
Ba/F3 (NPH) Activity: A (GI50 < 50 nM)

C=CC(=O)Nc1cc(Nc2cc(N3OCC[C@@H]3c3cccc(Cl)c3)ncn2)c(OC)cc1N1CCN(C)CC1 [compound 360, N-(5-((6-((R)-3-(3-chlorophenyl)isoxazolidine-2-yl)pyrimidine-4-yl)amino)-4-methoxy-2-(4-methylpiperazine-1-yl)phenyl)acrylamide]
Ba/F3 (NPH) Activity: A (GI50 < 50 nM)

C=CC(=O)Nc1cc(Nc2cc(N3OCC[C@@H]3c3cccc(Cl)c3)ncn2)c(OC)cc1N1CCN(C2COC2)CC1 [compound 470, N-(5-((6-((R)-3-(3-chlorophenyl)isoxazolidine-2-yl)pyrimidine-4-yl)amino)-4-methoxy-2-(4-(oxetane-3-yl)piperazine-1-yl)phenyl) acrylamide]
Ba/F3 (NPH) Activity: A (GI50 < 50 nM)

C=CC(=O)Nc1cc(Nc2cc(N3OCC[C@@H]3c3cccc(C#N)c3)ncn2)c(OC)cc1N1CCC(N2CC3CCC(C2)N3C2CC2)CC1 [Example 133, N-(5-((6-((R)-3-(3-cyanophenyl)isoxazolidine-2-yl)pyrimidine-4-yl)amino)-2-(4-(8-cyclopropyl-3,8-diazabicyclo[3.2.1]octan-3-yl)piperidine-1-yl)-4-methoxyphenyl) acrylamide]
Ba/F3 (NPH) Activity: B (50 nM ≤ GI50 < 500 nM)

C=CC(=O)Nc1cc(Nc2cc(N3OCC[C@@H]3c3cc(F)ccc3F)ncn2)c(OC)cc1N1CCC(N2C[C@@H]3C[C@H]2CO3)CC1 [compound 826, N-(2-(4-((1S,4S)-2-oxa-5-azabicyclo [2.2.1]heptane-5-yl)piperidine-1-yl)-5-((6-((R)-3-(2,5-difluorophenyl)isoxazolidine-2-yl)pyrimidine-4-yl)amino)-4-methoxyphenyl) acrylamide]
Ba/F3 (NPH) Activity: A (GI50 < 50 nM)

C=CC(=O)Nc1cc(Nc2cc(N3OCC[C@@H]3c3cccc(Cl)c3F)ncn2)c(OC)cc1N1CCN(C)CC1 [compound 789, N-(5-((6-((R)-3-(3-chloro-2-fluorophenyl)isoxazolidine-2-yl)pyrimidine-4-yl)amino)-4-methoxy-2-(4-methylpiperazine-1-yl)phenyl)acrylamide]
Ba/F3 (NPH) Activity: A (GI50 < 50 nM)

C=CC(=O)Nc1cc(Nc2cc(N3OCC[C@@H]3c3cccc4ccccc34)ncn2)c(OC)cc1N1CCC(N(C)C)CC1 [compound 442, N-(2-(4-methoxy-5-((6-(dimethylamino)piperidine-1-yl)-4-((R)-3-(naphthalene-1-yl)isoxazolidine-2-yl)pyrimidine-4-yl)amino)phenyl) acrylamide]
Ba/F3 (NPH) Activity: A (GI50 < 50 nM)

C=CC(=O)Nc1cc(Nc2cc(N3OCC[C@@H]3Cc3ccccc3)ncn2)c(OC)cc1N1CCN(C2CCOCC2)CC1 [compound 971, N-(5-((6-((S)-3-benzylisoxazolidine-2-yl)pyrimidine-4-yl)amino)-4-methoxy-2-(4-(tetrahydro-2H-pyran-4-yl)piperazine-1-yl)phenyl) acrylamide]
Ba/F3 (NPH) Activity: A (GI50 < 50 nM)

C=CC(=O)Nc1cc(Nc2cc(N3OCC[C@@H]3c3ccc(F)cc3F)ncn2)c(OC)cc1N1CCC(N2CCN(C(C)=O)CC2)CC1 [compound 427, N-(2-(4-(4-acetylpiperazine-1-yl)piperidine-1-yl)-5-((6-((R)-3-(2,4-difluorophenyl)isoxazolidine-2-yl)pyrimidine-4-yl)amino)-4-methoxyphenyl) acrylamide]
Ba/F3 (NPH) Activity: A (GI50 < 50 nM)

C=CC(=O)Nc1cc(Nc2cc(N3OCC[C@@H]3c3cccc(Cl)c3Cl)ncn2)c(OC)cc1N1CCC(N2CCN(CC)CC2)CC1 [compound 569, N-(5-((6-((R)-3-(2,3-dichlorophenyl)isoxazolidine-2-yl)pyrimidine-4-yl)amino)-2-(4-(4-ethylpiperazine-1-yl)piperidine-1-yl)-4-methoxyphenyl) acrylamide]
Ba/F3 (NPH) Activity: A (GI50 < 50 nM)
